Values quoted from earlier work as cited in patent US4842859A, “Pharmaceutical compositions for reducing hyperlipidemia and platelet-aggregation” (priority 1986, dated 1989).

Legend:
[1] = patients; prior art; listed as clofibrate
[2] = system: transient ischemic attacks; settings: men; prior art

| SMILES | side effects / toxic effects [1] | effect on incidence of transient ischemic attacks [2] |
| --- | --- | --- |
| CCOC(=O)C(C)(C)Oc1ccc(Cl)cc1 [Clofibrate] | decreased libido and breast tenderness |  |
| CC(=O)Oc1ccccc1C(=O)O [Aspirin] |  | decrease the incidence of transient ischemic attacks |
